# Laboratory results taken from patent US9926282B2, “Phthalazinones and isoquinolinones as rock inhibitors” (BRISTOL-MYERS SQUIBB COMPANY, priority 2013, dated 2018).
# Experiments:
# ROCK1 = ROCK1 (Homo sapiens (Human), UniProt Q13464); test: ROCK assay (LABCHIP peptide phosphorylation), ROCK1; format: biochemical; details: 5 μM ATP, 1.5 μM peptide substrate; read-out: ROCK1 IC50
# ROCK2 = ROCK2 (Homo sapiens (Human), UniProt O75116); test: ROCK assay (LABCHIP peptide phosphorylation), ROCK2; format: biochemical; details: 5 μM ATP, 1.5 μM peptide substrate
# ROCK2, sequence (O75116 whole entry, species assumed): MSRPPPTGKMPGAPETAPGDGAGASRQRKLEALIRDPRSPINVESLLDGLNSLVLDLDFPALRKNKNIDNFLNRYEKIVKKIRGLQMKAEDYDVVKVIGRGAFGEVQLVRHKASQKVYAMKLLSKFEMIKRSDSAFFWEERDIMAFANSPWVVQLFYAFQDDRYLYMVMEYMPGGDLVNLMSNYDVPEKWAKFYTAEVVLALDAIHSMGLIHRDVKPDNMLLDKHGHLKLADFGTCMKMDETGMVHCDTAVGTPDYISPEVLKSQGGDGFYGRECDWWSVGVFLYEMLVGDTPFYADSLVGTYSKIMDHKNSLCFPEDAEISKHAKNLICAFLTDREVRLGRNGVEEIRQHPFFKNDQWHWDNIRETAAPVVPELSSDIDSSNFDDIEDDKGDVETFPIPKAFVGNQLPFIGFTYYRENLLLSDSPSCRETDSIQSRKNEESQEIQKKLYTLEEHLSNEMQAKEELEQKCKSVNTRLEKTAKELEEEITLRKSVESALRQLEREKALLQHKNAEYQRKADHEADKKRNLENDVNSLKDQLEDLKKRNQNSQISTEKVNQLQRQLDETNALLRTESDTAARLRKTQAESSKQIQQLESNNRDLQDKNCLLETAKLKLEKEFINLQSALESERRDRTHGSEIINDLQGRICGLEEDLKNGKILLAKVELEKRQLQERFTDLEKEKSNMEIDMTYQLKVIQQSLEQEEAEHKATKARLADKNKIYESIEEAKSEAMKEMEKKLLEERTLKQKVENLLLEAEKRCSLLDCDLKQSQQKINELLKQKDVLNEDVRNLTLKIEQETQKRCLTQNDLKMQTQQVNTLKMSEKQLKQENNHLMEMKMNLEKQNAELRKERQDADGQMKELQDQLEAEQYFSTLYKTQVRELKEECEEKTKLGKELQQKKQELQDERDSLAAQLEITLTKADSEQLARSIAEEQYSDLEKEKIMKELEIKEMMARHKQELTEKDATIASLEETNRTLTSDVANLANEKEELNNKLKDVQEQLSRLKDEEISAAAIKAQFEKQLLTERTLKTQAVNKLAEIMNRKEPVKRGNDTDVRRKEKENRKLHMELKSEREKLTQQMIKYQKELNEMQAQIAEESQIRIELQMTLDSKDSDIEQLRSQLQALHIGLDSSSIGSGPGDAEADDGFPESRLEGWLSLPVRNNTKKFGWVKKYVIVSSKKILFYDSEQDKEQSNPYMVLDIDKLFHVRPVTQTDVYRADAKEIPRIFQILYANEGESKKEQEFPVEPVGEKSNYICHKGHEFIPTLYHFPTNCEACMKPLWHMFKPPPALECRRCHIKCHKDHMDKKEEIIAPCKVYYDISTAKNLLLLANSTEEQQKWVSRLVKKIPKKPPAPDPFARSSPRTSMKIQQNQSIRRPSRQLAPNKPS
# ROCK1, sequence (Q13464 whole entry, species assumed): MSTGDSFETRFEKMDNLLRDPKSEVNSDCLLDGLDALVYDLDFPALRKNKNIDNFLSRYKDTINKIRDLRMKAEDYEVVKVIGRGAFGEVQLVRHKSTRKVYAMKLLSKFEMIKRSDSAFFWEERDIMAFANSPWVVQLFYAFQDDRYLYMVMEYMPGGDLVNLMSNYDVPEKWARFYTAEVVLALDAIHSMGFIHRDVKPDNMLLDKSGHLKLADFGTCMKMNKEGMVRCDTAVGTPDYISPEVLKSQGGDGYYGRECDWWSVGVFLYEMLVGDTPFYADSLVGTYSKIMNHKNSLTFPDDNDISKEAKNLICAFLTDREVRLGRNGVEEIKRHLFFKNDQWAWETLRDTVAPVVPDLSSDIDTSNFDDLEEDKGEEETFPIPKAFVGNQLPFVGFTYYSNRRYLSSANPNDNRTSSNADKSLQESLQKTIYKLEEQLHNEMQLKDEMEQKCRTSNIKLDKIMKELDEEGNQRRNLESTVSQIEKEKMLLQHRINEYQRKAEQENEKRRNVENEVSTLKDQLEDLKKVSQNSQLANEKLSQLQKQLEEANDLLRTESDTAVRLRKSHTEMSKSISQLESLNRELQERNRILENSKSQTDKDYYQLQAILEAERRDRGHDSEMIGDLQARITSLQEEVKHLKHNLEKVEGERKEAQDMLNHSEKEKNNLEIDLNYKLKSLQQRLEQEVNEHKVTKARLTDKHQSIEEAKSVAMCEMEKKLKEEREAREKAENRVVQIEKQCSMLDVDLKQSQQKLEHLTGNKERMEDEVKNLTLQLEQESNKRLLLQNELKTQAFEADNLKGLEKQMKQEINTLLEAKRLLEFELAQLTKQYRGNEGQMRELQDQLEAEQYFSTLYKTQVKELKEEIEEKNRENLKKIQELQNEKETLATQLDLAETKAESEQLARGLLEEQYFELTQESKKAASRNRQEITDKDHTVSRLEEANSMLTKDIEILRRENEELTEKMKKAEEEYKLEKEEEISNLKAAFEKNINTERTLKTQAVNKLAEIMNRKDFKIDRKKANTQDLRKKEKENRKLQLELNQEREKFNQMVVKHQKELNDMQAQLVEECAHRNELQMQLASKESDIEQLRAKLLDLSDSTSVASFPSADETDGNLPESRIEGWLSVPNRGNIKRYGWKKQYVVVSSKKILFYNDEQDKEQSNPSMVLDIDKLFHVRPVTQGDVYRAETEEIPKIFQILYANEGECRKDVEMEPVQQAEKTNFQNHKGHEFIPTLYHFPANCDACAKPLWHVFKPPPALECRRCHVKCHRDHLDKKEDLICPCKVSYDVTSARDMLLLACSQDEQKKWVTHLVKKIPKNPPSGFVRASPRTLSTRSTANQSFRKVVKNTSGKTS
IC50 (ROCK1) [nM],IC50 (ROCK2) [nM],Structure (SMILES)
101 to 1000,0.1 to 100,"Cc1cc(NC(=O)c2c3ccccc3nn2CCN(C)C)ccc1-c1n[nH]c(=O)c2ccccc12 [Example 304, 2-[2-(dimethylamino)ethyl]-N-[3-methyl-4-(4-oxo-3,4-dihydrophthalazin-1-yl)phenyl]-2H-indazole-3-carboxamide]"
1000 to 50000,1000 to 50000,"Cc1cc(NC(=O)c2c3ccccc3nn2CC2COC2)ccc1-c1n[nH]c(=O)c2ccccc12 [Example 305, N-[3-methyl-4-(4-oxo-3,4-dihydrophthalazin-1-yl)phenyl]-2-(oxetan-3-ylmethyl)-2H-indazole-3-carboxamide]"
101 to 1000,0.1 to 100,"Cc1cc(NC(=O)c2onc3ccccc23)ccc1-c1n[nH]c(=O)c2ccccc12 [Example 306, N-[3-methyl-4-(4-oxo-3,4-dihydrophthalazin-1-yl)phenyl]-2,1-benzoxazole-3-carboxamide]"
0.1 to 100,0.1 to 100,"Cc1cc(NC(=O)c2c[nH]c3ncc(F)cc23)ccc1-c1n[nH]c(=O)c2ccccc12 [Example 308, 5-fluoro-N-[3-methyl-4-(4-oxo-3,4-dihydrophthalazin-1-yl)phenyl]-1H-pyrrolo [2,3-b]pyridine-3-carboxamide]"
0.1 to 100,0.1 to 100,"COc1cccc2cc(C(=O)Nc3ccc(-c4n[nH]c(=O)c5ccccc45)c(C)c3)[nH]c12 [Example 309, 7-methoxy-N-[3-methyl-4-(4-oxo-3,4-dihydrophthalazin-1-yl)phenyl]-1H-indole-2-carboxamide]"
101 to 1000,0.1 to 100,"Cc1cc(NC(=O)c2cnn3ccccc23)ccc1-c1n[nH]c(=O)c2ccccc12 [Example 310, N-[3-methyl-4-(4-oxo-3,4-dihydrophthalazin-1-yl)phenyl]pyrazolo [1,5-a]pyridine-3-carboxamide]"
0.1 to 100,0.1 to 100,"Cc1cc(NC(=O)c2c(C)nc3ccccn23)ccc1-c1n[nH]c(=O)c2ccccc12 [Example 311, 2-methyl-N-[3-methyl-4-(4-oxo-3,4-dihydrophthalazin-1-yl)phenyl]imidazo[1,2-a] pyridine-3-carboxamide]"
101 to 1000,0.1 to 100,"Cc1cc(NC(=O)c2cnc3ccccn23)ccc1-c1n[nH]c(=O)c2ccccc12 [Example 312, N-[3-methyl-4-(4-oxo-3,4-dihydrophthalazin-1-yl)phenyl]imidazo [1,2-a]pyridine-3-carboxamide]"

Structure (SMILES),IC50 (ROCK1) [nM],IC50 (ROCK2) [nM]
"Cc1cc(NC(=O)c2nn(CC3CCN(C(=O)OCc4ccccc4)CC3)c3ccccc23)ccc1-c1n[nH]c(=O)c2ccccc12 [Example 307, benzyl 4-[(3-{[3-methyl-4-(4-oxo-3,4-dihydrophthalazin-1-yl)phenyl]carbamoyl}-1H-indazol-1-yl)methyl] piperidine-1-carboxylate]",101 to 1000,0.1 to 100
"Cc1cc(NC(=O)c2nn(CC3CCOCC3)c3ccccc23)ccc1-c1n[nH]c(=O)c2ccccc12 [Example 313, N-[3-methyl-4-(4-oxo-3,4-dihydrophthalazin-1-yl)phenyl]-1-(oxan-4-ylmethyl)-1H-indazole-3-carboxamide]",0.1 to 100,0.1 to 100
"Cc1cc(NC(=O)c2nn(CC3(C)COC3)c3ccccc23)ccc1-c1n[nH]c(=O)c2ccccc12 [Example 314, N-[3-methyl-4-(4-oxo-3,4-dihydrophthalazin-1-yl)phenyl]-1-[(3-methyloxetan-3-yl)methyl]-1H-indazole-3-carboxamide]",0.1 to 100,0.1 to 100
"CC(C)(O)Cn1nc(C(=O)Nc2ccc(-c3n[nH]c(=O)c4ccccc34)c(Cl)c2)c2ccccc21 [Example 315, N-[3-chloro-4-(4-oxo-3,4-dihydrophthalazin-1-yl)phenyl]-1-(2-hydroxy-2-methylpropyl)-1H-indazole-3-carboxamide]",0.1 to 100,0.1 to 100
